From a melting point compilation (Tetko et al.; mined from patent text by program, amines drawn as free bases though some values may be those of a salt)
Residues, ends and D or L forms follow the SMILES beside them. *: point of attachment. ONp = O=[N+]([O-])c1ccc(O*)cc1

`O=c1n(CCCCN2CCC(n3c(=O)[nH]c4ccccc43)CC2)nc2n1-c1ccccc1OC2` showed a melting point of 173 to 176 °C. Work on `Cc1cn(COCCI)c(=O)[nH]c1=O` yielded a melting point of 112 to 115 °C. `O=c1ccc(-c2ccc(OC(F)F)c(OCC3CC3)c2)n[nH]1` gave a melting point of 142 °C. `CC(=NOCCCOc1ccccc1)C(=O)O` showed a melting point of 86 to 88 °C. `CC(C)(C)c1ccc(N(c2ccccc2)c2ccc(-c3ccc(Nc4ccccc4)cc3)cc2)cc1` gave a melting point of 126 to 127 °C. Compound `COC(=O)CN1C(=O)c2ccc(F)cc2S1(=O)=O` has a melting point of 86 °C. `CCNC1=C(c2ccc(O)cc2)C(=O)c2cc(O)ccc21` showed a melting point of 250 °C. In the case of `CN(C)c1ccc(C(NCCO)C(O)c2ccccc2)cc1` (stereo unspecified), the melting point is reported as 147 to 148 °C. In the case of `CCOC(=O)OC1CCN(C(=O)OCC)Cc2cc3ccccc3nc21` (stereo unspecified), the melting point is reported as < 40 °C. Work on `CCOC(=O)Cc1cccc2c(-c3ccc([N+](=O)[O-])cc3)nccc12` yielded a melting point of 89.5 to 90.5 °C. Compound `CCOC(=O)c1ccc(NCC(C)Oc2cccc3ccccc23)cc1` (stereo unspecified) has a melting point of 110 to 112 °C. `O=C(Cc1ccc(Cl)cc1)NCc1cccc2c1C(=O)N(C1CCC(=O)NC1=O)C2=O` (stereo unspecified) gave a melting point of 243 to 245 °C. For `O=C(NCCN1CCOCC1)Nc1nc2ccc(OCc3c(F)cccc3Cl)cc2s1`, the melting point was 210 °C. `O=C1c2ccccc2C(=O)N1CCN1CCC(=C2c3ccccc3C=Cc3ccccc32)CC1` showed a melting point of 190 °C. `Cc1cc(C)c(C)c(COc2cccc(-c3ccoc3C(=O)NNC(=O)c3ccc(O)c([N+](=O)[O-])c3)c2)c1C` gave a melting point of 140 to 142 °C. `O=C1CCCC(n2nc(-c3c(-c4ccccc4)nn4ccccc34)ccc2=O)C1` (stereo unspecified) showed a melting point of 126 to 127 °C. `Cn1c(=O)c(-c2c(Cl)cccc2Cl)cc2cnc(Nc3cccnc3)nc21` showed a melting point of 247 to 248 °C. `CC(=O)Oc1cc(O)c(Cl)cn1` showed a melting point of 270 to 272 °C. `Cc1cc(O)c(O)cc1C` showed a melting point of 71 to 72 °C. `COc1ccc2c(c1)SC(C#N)=C(N)CO2` gave a melting point of 203 to 205 °C. Compound `CS(=O)(=O)c1ccc(-c2nn(CC3CC3)c(=O)cc2-c2ccc(Cl)cc2)cc1` has a melting point of 140 °C. In the case of `CCCn1nc(C(C)C)c(C(N)=O)c1Cc1ccc(-c2ccccc2-c2nnn[nH]2)cc1`, the melting point is reported as 156 to 159 °C. With `COc1ccc(C(=O)N2c3ccccc3C(N3CCCc4cc(C)ccc43)CC2C)cc1OC` (stereo unspecified) the melting point was 139 to 140 °C. Compound `CCOCc1nc2c(N)nc3ccccc3c2n1CCCCS(=O)(=O)N1CCCCC1` has a melting point of 185 to 188 °C. Work on `CCOC(=O)N1CCC2C(C1)c1cccc3c1N2CC(=O)N3` (stereo unspecified) yielded a melting point of 167 to 168 °C. `CC1(C)CC(OC(=O)CCc2cc(-n3nc4ccc(S(=O)(=O)c5ccccc5)cc4n3)c(O)c(C(C)(C)C)c2)CC(C)(C)N1` showed a melting point of 85 to 125 °C. Compound `Clc1cc(I)ccc1CBr` has a melting point of 44 to 45.5 °C. Work on `CC(=O)OCC1CCc2c(C3=C(c4cn(C)c5ccccc45)C(=O)OC3=O)c3ccccc3n2CC1` (stereo unspecified) yielded a melting point of 70 °C. Compound `O=C(O)Cc1c(Oc2ccc3c(c2)OCO3)cccc1Oc1ccc2c(c1)OCO2` has a melting point of 176 to 177 °C. `CC=CC(=O)C1C(C)CCCC1(C)C` (stereo unspecified) gave a melting point of 8 to 9 °C. For `O=c1cc(N2CCOCC2)oc2cc(OS(=O)(=O)C(F)(F)F)ccc12`, the melting point was 143 to 145 °C. With `Cc1cc(O)c([N+](=O)[O-])cc1C(=O)c1c(Cl)cccc1Cl` the melting point was 170 °C. Compound `CCN(CC)c1ccc(CNc2cc(C(=O)Nc3ccc(F)c(F)c3)ccc2OC)cc1` has a melting point of 165 to 167 °C. Work on `Cc1c([N+](=O)[O-])ccnc1C(=O)NCCNC(=O)OC(C)(C)C` yielded a melting point of 133 to 134 °C. Compound `CCOC(OCC)c1nc(-c2ccc(Cl)cc2)c(F)c(N=C2C=CC(=O)C=C2)c1Cl` has a melting point of 134 to 136 °C. Work on `CCOC(=O)C1(CCCCOc2ccc(C(=O)OC)cc2)Cc2c(OC)c(OC)c(OC)c(OC)c2C1=O` (stereo unspecified) yielded a melting point of 116 to 118 °C. `COc1cc2c(cc1OC)C(C=Cc1ccc(Cl)c(Cl)c1)=NNC(C)C2` (stereo unspecified) showed a melting point of 132 to 133 °C. Compound `N[C@@H](Cc1cccc(C(F)(F)F)c1)[C@H](O)c1ccc(F)cc1` (racemic) has a melting point of 76 to 77 °C. `N#Cc1ccc2oc3cc(O)ccc3c2c1` showed a melting point of 270 to 271 °C. In the case of `Cc1ccc2nc3c(C)cc(=O)c(Cl)c-3sc2c1`, the melting point is reported as 215 to 218 °C. For `CC(C(=O)O)c1ccc([N+](=O)[O-])c(F)c1` (stereo unspecified), the melting point was 74 to 77 °C. For `CC(C)Nc1cccnc1N1CCN(C(=O)c2ccc(C(=O)N3CCNCC3)cc2)CC1`, the melting point was 175 to 176 °C. `CC(C)Cn1c(=O)n(C)c(=O)c2c(SC(C)C)c(Cn3cnc4ccccc43)sc21` gave a melting point of 195 °C. Work on `O=C(NCC(=O)N1CCC(=C2c3ccccc3C=Cc3ccccc32)CC1)OCc1ccccc1` yielded a melting point of 142 to 144 °C. For `O=C1CNC(c2cc(Br)cc(-c3ccsc3)c2)=NN1CC(F)(F)F`, the melting point was 167 to 169 °C. For `CCOC(=O)C=C(C(=O)OCC)c1ccc(C(Br)Br)cc1`, the melting point was 89 to 92.5 °C. For `CC(C)N1CCN(Cc2ccc(NC(=O)c3cccc4cc(Oc5cc(N)ncn5)ccc34)cc2C(F)(F)F)CC1`, the melting point was 185 to 189 °C. `N#Cc1ccc(CCc2cc(Cl)ccc2OCc2ccccc2)cc1` showed a melting point of 77 to 79 °C. Work on `CC1(C)CC(=O)c2c(Cc3ccccc3)cn(-c3ccccn3)c2C1` yielded a melting point of 111 to 113 °C. Work on `CN1CCN(C(=O)Nc2cccc3nc(NC4CCc5ccccc54)ccc23)CC1` (stereo unspecified) yielded a melting point of 142 °C. In the case of `CC1(C)OC(=O)Nc2ccc(-c3cccc(C(=O)c4ccccc4)c3)cc21`, the melting point is reported as 156 to 157 °C. In the case of `Cc1nc(C(F)(F)F)ccc1C(=O)C1=C(O)C(C)(C)CCC1=O`, the melting point is reported as 75 to 77 °C. For `CCCCOC(=Cn1ccnc1)c1ccc(Cl)cc1Cl`, the melting point was 205 to 207 °C. `c1ccc(C(OC2CCN(CCCNc3ccc4ncnn4n3)CC2)c2ccccc2)cc1` gave a melting point of 136 to 138 °C. In the case of `Cc1oc(-c2ccccc2)nc1COc1ccc(Cc2nc(-c3ccccc3)c(CCC(=O)O)o2)cc1`, the melting point is reported as 142 to 143 °C. `CCCn1nnc(NC(=O)C2c3ccccc3Oc3ccccc32)n1` showed a melting point of 208 to 209 °C. With `N#Cc1nc(F)c(F)c(N)c1Cl` the melting point was 190 to 192 °C. For `CC(O)CNC1(F)C=CC(N)=C([N+](=O)[O-])C1` (stereo unspecified), the melting point was 97 °C. `O=C(c1cccc(Cc2ccc(=O)[nH]n2)c1)c1c(Cl)cc(Cl)cc1Cl` gave a melting point of 149 to 151 °C. For `Cc1cccc(C)c1NC(=O)CC1c2ccccc2Oc2ccccc21`, the melting point was 249 to 250 °C. Work on `O=C(Nc1ccc(Oc2ccnc(NCC3OCCO3)n2)c2ccccc12)c1cc(F)cc(N2CCCCC2)c1` yielded a melting point of 96 to 98 °C. For `COc1ccc(Cc2c(C(=O)O)n(CC3CC3)c3ccccc23)cc1`, the melting point was 162 to 163 °C. Compound `FC(F)(F)c1ccc2c(Cl)nccc2n1` has a melting point of 90 °C. `CCOC(=O)C1=CC(=O)C2(C(=O)c3ccccc3)OC2O1` (stereo unspecified) showed a melting point of 96 to 98 °C. Compound `OC1(CCc2ccccc2)CCOCC1` has a melting point of 74 to 75 °C. For `CC(C)C[C@@H](CC(=O)O)NC(=O)[C@@H](CS)C(F)(F)F`, the melting point was 155 to 156 °C. With `Cc1ccc(S(=O)(=O)OCCC2COc3ccccc3O2)cc1` (stereo unspecified) the melting point was 82 to 83 °C. Work on `Clc1cc(Cl)cc(C=C2CCC3(CC2)OCCO3)c1` yielded a melting point of 66 °C. For `O=C(c1ccc(Oc2ccccc2)c([N+](=O)[O-])c1)c1ccc(Oc2ccccc2)c([N+](=O)[O-])c1`, the melting point was 111 to 113 °C. For `CCCOc1ccc(S(=O)(=O)CC)cc1-c1nc2c(CC)nn(C[C@@H]3CCCN3C(=O)OC(C)(C)C)c2c(=O)[nH]1`, the melting point was 170 to 172 °C. In the case of `CC(CS)C(=O)N(CC(=O)O)C1CC1` (stereo unspecified), the melting point is reported as 89 to 91 °C. With `COC(=O)C1=C(C)NC(C)=C(P2(=O)OCCCO2)C1c1cccc([N+](=O)[O-])c1` (stereo unspecified) the melting point was 221 to 223 °C. Compound `Cc1cc(C2(C(F)(F)F)CC(C(F)(F)F)=NO2)ccc1NC(=O)c1cccc(I)c1C(=O)NC(C)C` (stereo unspecified) has a melting point of 240 to 242 °C. Work on `Cn1nc(-c2ccccc2)c(N=O)c1N` yielded a melting point of 230 to 231 °C. Work on `COc1ncccc1-c1cccn2nc(Nc3ccc(C4CCN(CC(=O)N(C)C)CC4)cc3)nc12` yielded a melting point of 173 to 175 °C. For `C/C(=C\Cn1oc(=O)[nH]c1=O)c1cccc(OCc2nc(-c3ccc(OCC(F)(F)F)cc3)oc2C)c1`, the melting point was 145 to 146 °C. With `Oc1ccc(CN2CC=CCC2)cc1O` the melting point was > 300 °C. With `CC(C)n1cc(C(=O)O)c2ccc(C(F)(F)F)cc21` the melting point was 177 to 178 °C. `CN1CCN(Cc2ccc(NC(=O)c3cccc4cc(Oc5cc(N)ncn5)ccc34)cc2C(F)(F)F)CC1` gave a melting point of 127 to 130 °C. `N#CC(C#N)(CCSC(F)(F)C(F)Cl)CC(F)(F)C(F)(F)C(F)(F)C(F)F` (stereo unspecified) showed a melting point of 78 to 80 °C. `O=S(=O)(Nc1cccc(CCOCc2ccc(-c3ccc(F)cc3)cc2F)c1)C(F)(F)F` gave a melting point of 65 to 67 °C. In the case of `COc1c(Cl)ccc(-c2cc(N)c(Cl)c(C(=O)N(C)O)n2)c1F`, the melting point is reported as 211 to 214 °C. `Cn1cc(-c2cc(-c3cnc4[nH]ccc4c3)ccn2)n(-c2ccc(C(C)(C)CN)cc2)c1=O` showed a melting point of 91 °C. `O=C(Nc1nc(=O)n(S(=O)(=O)c2ccc(Cl)cc2)cc1F)c1ccc(Cl)cc1` gave a melting point of 169 to 172 °C. `CC(C)(O)c1cc(C(C)(C)O)cc(C(C)(C)O)c1` showed a melting point of 148 to 150 °C. Compound `CSc1cccc(SC)c1S(N)(=O)=O` has a melting point of 197 to 199 °C. Compound `CCCNC(=O)c1ccc(-c2ccc3nnn(Cc4ccc5ncccc5c4)c3n2)cc1F` has a melting point of 157 to 159 °C. In the case of `NS(=O)(=O)c1ccc(-c2noc(-c3cnn4c(C(F)F)cc(-c5ccc(Cl)cc5)nc34)n2)s1`, the melting point is reported as 259 °C. For `CSc1ccc(COc2cc(S(=O)(=O)C(C)C)cc(C#N)c2N)nc1`, the melting point was 156 to 157 °C. Work on `Cc1nn(-c2ccc(C(F)(F)F)cn2)cc1CCCOc1ccccc1CC(=O)O` yielded a melting point of 128 to 129 °C. For `CC(C)CC(NC(=O)C1CCCN1)C(=O)NCC(=O)Oc1ccc([N+](=O)[O-])cc1` (stereo not drawn) (H-Pro-Leu-Gly-ONp; configuration not given here), the melting point was 173 °C. With `CCCCn1c(=O)c2nn(S(=O)(=O)c3ccc(C(C)(C)C)cc3)cc2n(CCCC)c1=O` the melting point was 158 to 159 °C. For `CCCNC(=O)C(=CN(C)C)C(=O)c1ccccc1Cl`, the melting point was 76 to 78 °C. With `O=C(Nc1ccc(Br)cc1)c1cc2ccccc2o1` the melting point was 178 to 180 °C. `O=c1nc(N2CCN(c3ccc(Cl)cc3)CC2)sc2c([N+](=O)[O-])cc([N+](=O)[O-])cc12` gave a melting point of 178 to 180 °C. With `CCNc1nc(=S)n(CC)c2nc(C3CC3)[nH]c12` the melting point was 265 °C.
